Patent publication US7846959B2, “Raf modulators and methods of use” (Exelixis, Inc., priority 2004, dated 2010)

What was measured:
c-Raf = c-Raf (Homo sapiens, UniProt P04049); experiment: Luciferase-coupled chemiluminescence kinase assay (ATP consumption), c-Raf; type: biochemical; settings: read-out: cRaf-1 IC50
How it was run: (§1)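 Read-out: percent ATP consumed, quantified by luciferase/luciferin chemiluminescence after the kinase step. ATP consumption was held at 25-60%. Kinase ([…]) plus compound were preincubated 30 min at RT in Tris pH 7.5 buffer with MgCl2, Triton and DTT, then reacted with ATP for 3 h.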

B-Raf = B-Raf (Homo sapiens, UniProt P15056); experiment: Luciferase-coupled chemiluminescence kinase assay (ATP consumption), B-Raf; type: biochemical; settings: read-out: bRaf IC50
Sequence of B-Raf (P15056 whole entry): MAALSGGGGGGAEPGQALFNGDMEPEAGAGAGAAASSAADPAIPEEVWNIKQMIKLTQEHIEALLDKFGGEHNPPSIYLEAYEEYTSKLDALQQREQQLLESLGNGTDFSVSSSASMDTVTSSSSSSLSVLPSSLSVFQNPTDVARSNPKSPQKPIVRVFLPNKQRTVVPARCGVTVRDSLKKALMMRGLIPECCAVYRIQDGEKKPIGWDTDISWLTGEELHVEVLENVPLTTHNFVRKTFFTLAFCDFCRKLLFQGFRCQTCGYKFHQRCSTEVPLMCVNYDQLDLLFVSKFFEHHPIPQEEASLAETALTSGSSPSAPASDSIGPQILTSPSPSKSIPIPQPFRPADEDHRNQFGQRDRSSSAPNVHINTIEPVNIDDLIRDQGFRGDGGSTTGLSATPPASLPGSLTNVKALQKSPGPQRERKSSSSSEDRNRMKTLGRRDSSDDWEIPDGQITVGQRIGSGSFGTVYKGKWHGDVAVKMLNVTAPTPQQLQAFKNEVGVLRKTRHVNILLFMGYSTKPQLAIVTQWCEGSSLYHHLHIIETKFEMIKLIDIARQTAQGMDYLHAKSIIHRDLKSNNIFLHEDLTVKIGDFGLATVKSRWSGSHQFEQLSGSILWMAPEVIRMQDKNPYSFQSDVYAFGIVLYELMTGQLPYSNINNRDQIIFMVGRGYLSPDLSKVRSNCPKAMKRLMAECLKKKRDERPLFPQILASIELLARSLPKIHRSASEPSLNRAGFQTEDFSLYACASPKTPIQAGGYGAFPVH
How it was run: as §1

Sequence of c-Raf (P04049 whole entry): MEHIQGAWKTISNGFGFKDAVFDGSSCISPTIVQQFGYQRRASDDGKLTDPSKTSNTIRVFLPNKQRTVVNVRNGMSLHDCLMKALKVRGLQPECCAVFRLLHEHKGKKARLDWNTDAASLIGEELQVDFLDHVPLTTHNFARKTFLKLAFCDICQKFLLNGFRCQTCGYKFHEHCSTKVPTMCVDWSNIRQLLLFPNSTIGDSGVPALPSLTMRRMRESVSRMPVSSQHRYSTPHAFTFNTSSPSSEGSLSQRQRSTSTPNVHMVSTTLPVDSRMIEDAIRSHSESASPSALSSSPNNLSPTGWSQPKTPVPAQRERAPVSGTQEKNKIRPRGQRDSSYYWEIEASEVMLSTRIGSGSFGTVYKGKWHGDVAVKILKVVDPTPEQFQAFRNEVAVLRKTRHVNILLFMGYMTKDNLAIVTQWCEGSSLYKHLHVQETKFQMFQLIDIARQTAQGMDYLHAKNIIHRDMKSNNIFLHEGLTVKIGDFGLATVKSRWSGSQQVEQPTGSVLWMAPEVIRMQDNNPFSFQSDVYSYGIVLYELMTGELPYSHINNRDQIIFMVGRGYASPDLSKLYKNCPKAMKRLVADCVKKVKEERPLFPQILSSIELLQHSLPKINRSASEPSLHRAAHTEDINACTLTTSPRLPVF

IC50 (c-Raf) [nM]	IC50 (B-Raf) [nM]	Compound
< 100	< 100	O=C(Nc1nc2cc(C3(O)c4ccccc4C(=O)N3Cc3ccccc3)ccc2[nH]1)OC1CCNCC1 (stereo not shown) [Entry 170, piperidin-4-yl {5-[1-hydroxy-3-oxo-2-(phenylmethyl)-2,3-dihydro-1H-isoindol-1-yl]-1H-benzimidazol-2-yl}carbamate]
< 100	< 100	CNC(=O)Nc1nc2cc(C3(O)c4ccccc4C(=O)N3Cc3ccccc3)ccc2[nH]1 (stereo not shown) [Entry 171, N-{5-[1-hydroxy-3-oxo-2-(phenylmethyl)-2,3-dihydro-1H-isoindol-1-yl]-1H-benzimidazol-2-yl}-N′-methylurea]
1000 to 10000	1000 to 10000	COC(=O)Nc1nc2cc(C3(O)c4ccccc4C(=O)N3C(C)c3ccccc3F)ccc2[nH]1 (stereo not shown) [Entry 172, methyl (5-{2-[1-(2-fluorophenyl)ethyl]-1-hydroxy-3-oxo-2,3-dihydro-1H-isoindol-1-yl}-1H-benzimidazol-2-yl)carbamate]
< 100	< 100	COC(=O)Nc1nc2cc(C3(O)c4ccccc4C(=O)N3C(C)c3cccs3)ccc2[nH]1 (stereo not shown) [Entry 173, methyl (5-{1-hydroxy-3-oxo-2-[1-(2-thienyl)ethyl]-2,3-dihydro-1H-isoindol-1-yl}-1H-benzimidazol-2-yl)carbamate]
100 to 1000	< 100	COC(=O)Nc1nc2cc(C3(O)c4ccccc4C(=O)N3C(C)c3cccc(Cl)c3)ccc2[nH]1 (stereo not shown) [Entry 174, methyl (5-{2-[1-(3-chlorophenyl)ethyl]-1-hydroxy-3-oxo-2,3-dihydro-1H-isoindol-1-yl}-1H-benzimidazol-2-yl)carbamate]
< 100	< 100	COC(=O)Nc1nc2cc(C3(O)c4ccccc4C(=O)N3c3cc(C)cc(C(F)(F)F)c3)ccc2[nH]1 (stereo not shown) [Entry 175, methyl (5-{1-hydroxy-2-[3-methyl-5-(trifluoromethyl)phenyl]-3-oxo-2,3-dihydro-1H-isoindol-1-yl}-1H-benzimidazol-2-yl)carbamate]
< 100	< 100	CCC(=O)Nc1nc2cc(C3(O)c4ccccc4C(=O)N3Cc3ccccc3)ccc2[nH]1 (stereo not shown) [Entry 176, N-{5-[1-hydroxy-3-oxo-2-(phenylmethyl)-2,3-dihydro-1H-isoindol-1-yl]-1H-benzimidazol-2-yl}propanamide]
< 100	< 100	COC(=O)Nc1nc2cc(C3(O)c4ccccc4C(=O)N3c3ccc(Cl)c(Cl)c3)ccc2[nH]1 (stereo not shown) [Entry 177, methyl {5-[2-(3,4-dichlorophenyl)-1-hydroxy-3-oxo-2,3-dihydro-1H-isoindol-1-yl]-1H-benzimidazol-2-yl}carbamate]
< 100	< 100	CCc1cccc(N2C(=O)c3ccccc3C2(O)c2ccc3[nH]c(NC(=O)OC)nc3c2)c1 (stereo not shown) [Entry 178, methyl {5-[2-(3-ethylphenyl)-1-hydroxy-3-oxo-2,3-dihydro-1H-isoindol-1-yl]-1H-benzimidazol-2-yl}carbamate]
< 100	< 100	C#Cc1cccc(N2C(=O)c3ccccc3C2(O)c2ccc3[nH]c(NC(=O)OC)nc3c2)c1 (stereo not shown) [Entry 179, methyl {5-[2-(3-ethynylphenyl)-1-hydroxy-3-oxo-2,3-dihydro-1H-isoindol-1-yl]-1H-benzimidazol-2-yl}carbamate]
< 100	< 100	COC(=O)Nc1nc2cc(C3(O)c4ccccc4C(=O)N3c3ccc(Cl)c(C)c3)ccc2[nH]1 (stereo not shown) [Entry 180, methyl {5-[2-(4-chloro-3-methylphenyl)-1-hydroxy-3-oxo-2,3-dihydro-1H-isoindol-1-yl]-1H-benzimidazol-2-yl}carbamate]
1000 to 10000	1000 to 10000	COC(=O)Nc1nc2cc(C3(O)c4ccccc4C(=O)N3C(C)c3cccc(C(F)(F)F)c3)ccc2[nH]1 (stereo not shown) [Entry 181, methyl [5-(1-hydroxy-3-oxo-2-{1-[3-(trifluoromethyl)phenyl]ethyl}-2,3-dihydro-1H-isoindol-1-yl)-1H-benzimidazol-2-yl]carbamate]
100 to 1000	100 to 1000	CC[C@H](c1ccccc1)N1C(=O)c2ccccc2C1(O)c1ccc2[nH]c(NC(=O)OC)nc2c1 (stereo partly drawn) [Entry 182, methyl (5-{1-hydroxy-3-oxo-2-[(1R)-1-phenylpropyl]-2,3-dihydro-1H-isoindol-1-yl}-1H-benzimidazol-2-yl)carbamate]
100 to 1000	< 100	COC(=O)Nc1nc2cc(C3(O)c4ccccc4C(=O)N3c3ccccc3OC(F)(F)F)ccc2[nH]1 (stereo not shown) [Entry 183, methyl [5-(1-hydroxy-3-oxo-2-{2-[(trifluoromethyl)oxy]phenyl}-2,3-dihydro-1H-isoindol-1-yl)-1H-benzimidazol-2-yl]carbamate]
< 100	< 100	COC(=O)Nc1nc2cc(C3(O)c4ccccc4C(=O)N3c3cccc(F)c3F)ccc2[nH]1 (stereo not shown) [Entry 184, methyl {5-[2-(2,3-difluorophenyl)-1-hydroxy-3-oxo-2,3-dihydro-1H-isoindol-1-yl]-1H-benzimidazol-2-yl}carbamate]
100 to 1000	100 to 1000	O=C(Nc1nc2cc(C3(O)c4ccccc4C(=O)N3Cc3ccccc3)ccc2[nH]1)OC1CCCCC1 (stereo not shown) [Entry 185, cyclohexyl {5-[1-hydroxy-3-oxo-2-(phenylmethyl)-2,3-dihydro-1H-isoindol-1-yl]-1H-benzimidazol-2-yl}carbamate]
< 100	< 100	O=C(Nc1nc2cc(C3(O)c4ccccc4C(=O)N3Cc3ccccc3)ccc2[nH]1)OCC1CCCO1 (stereo not shown) [Entry 186, tetrahydrofuran-2-ylmethyl {5-[1-hydroxy-3-oxo-2-(phenylmethyl)-2,3-dihydro-1H-isoindol-1-yl]-1H-benzimidazol-2-yl}carbamate]
< 100	< 100	O=C(Nc1nc2cc(C3(O)c4ccccc4C(=O)N3Cc3ccccc3)ccc2[nH]1)OCC1CC1 (stereo not shown) [Entry 187, cyclopropylmethyl {5-[1-hydroxy-3-oxo-2-(phenylmethyl)-2,3-dihydro-1H-isoindol-1-yl]-1H-benzimidazol-2-yl}carbamate]
100 to 1000	1000 to 10000	O=C(Nc1nc2cc(C3(O)c4ccccc4C(=O)N3Cc3ccccc3)ccc2[nH]1)N1CCOCC1 (stereo not shown) [Entry 188, N-{5-[1-hydroxy-3-oxo-2-(phenylmethyl)-2,3-dihydro-1H-isoindol-1-yl]-1H-benzimidazol-2-yl}morpholine-4-carboxamide]
< 100	< 100	COC(=O)Nc1nc2cc(C3(O)c4ccccc4C(=O)N3CC3CCCC3)ccc2[nH]1 (stereo not shown) [Entry 189, methyl {5-[2-(cyclopentylmethyl)-1-hydroxy-3-oxo-2,3-dihydro-1H-isoindol-1-yl]-1H-benzimidazol-2-yl}carbamate]
< 100	< 100	COC(=O)Nc1nc2cc(C3(O)c4ccccc4C(=O)N3c3cccc(C)c3C)ccc2[nH]1 (stereo not shown) [Entry 190, methyl {5-[2-(2,3-dimethylphenyl)-1-hydroxy-3-oxo-2,3-dihydro-1H-isoindol-1-yl]-1H-benzimidazol-2-yl}carbamate]
< 100	< 100	COC(=O)Nc1nc2cc(C3(O)c4ccccc4C(=O)N3C3CCc4ccccc43)ccc2[nH]1 (stereo not shown) [Entry 191, methyl {5-[2-(2,3-dihydro-1H-inden-1-yl)-1-hydroxy-3-oxo-2,3-dihydro-1H-isoindol-1-yl]-1H-benzimidazol-2-yl}carbamate]
1000 to 10000	1000 to 10000	COC(=O)Nc1nc2cc(C3(O)c4ccccc4C(=O)N3[C@H](C(=O)OC)C3CCCCC3)ccc2[nH]1 (stereo partly drawn) [Entry 192, methyl (2S)-cyclohexyl[1-hydroxy-1-(2-{[(methyloxy)carbonyl]amino}-1H-benzimidazol-5-yl)-3-oxo-1,3-dihydro-2H-isoindol-2-yl]ethanoate]
< 100	< 100	COC(=O)Nc1nc2cc(C3(O)c4ccccc4C(=O)N3c3c(F)cccc3F)ccc2[nH]1 (stereo not shown) [Entry 193, methyl {5-[2-(2,6-difluorophenyl)-1-hydroxy-3-oxo-2,3-dihydro-1H-isoindol-1-yl]-1H-benzimidazol-2-yl}carbamate]
< 100	< 100	COC(=O)Nc1nc2cc(C3(O)c4ccccc4C(=O)N3c3ccc(F)c(Cl)c3)ccc2[nH]1 (stereo not shown) [Entry 194, methyl {5-[2-(3-chloro-4-fluorophenyl)-1-hydroxy-3-oxo-2,3-dihydro-1H-isoindol-1-yl]-1H-benzimidazol-2-yl}carbamate]
< 100	< 100	C=CCCOC(=O)Nc1nc2cc(C3(O)c4ccccc4C(=O)N3Cc3ccccc3)ccc2[nH]1 (stereo not shown) [Entry 195, but-3-en-1-yl {5-[1-hydroxy-3-oxo-2-(phenylmethyl)-2,3-dihydro-1H-isoindol-1-yl]-1H-benzimidazol-2-yl}carbamate]
< 100	< 100	O=C(Nc1nc2cc(C3(O)c4ccccc4C(=O)N3Cc3ccccc3)ccc2[nH]1)OCC(F)(F)F (stereo not shown) [Entry 196, 2,2,2-trifluoroethyl {5-[1-hydroxy-3-oxo-2-(phenylmethyl)-2,3-dihydro-1H-isoindol-1-yl]-1H-benzimidazol-2-yl}carbamate]
< 100	< 100	COC(=O)Nc1nc2cc(C3(O)c4ccccc4C(=O)N3c3cc(Cl)ccc3F)ccc2[nH]1 (stereo not shown) [Entry 197, methyl {5-[2-(5-chloro-2-fluorophenyl)-1-hydroxy-3-oxo-2,3-dihydro-1H-isoindol-1-yl]-1H-benzimidazol-2-yl}carbamate]
1000 to 10000	1000 to 10000	COC(=O)Nc1nc2cc(C3(O)c4ccccc4C(=O)N3C(C)c3cc(Cl)ccc3C)ccc2[nH]1 (stereo not shown) [Entry 198, methyl (5-{2-[1-(5-chloro-2-methylphenyl)ethyl]-1-hydroxy-3-oxo-2,3-dihydro-1H-isoindol-1-yl}-1H-benzimidazol-2-yl)carbamate]
